Entries after “also recorded” stand apart in the source; their conditions may differ.
Legend:
[1] = molecular target: NMDA receptor NR2A subunit (Homo sapiens, UniProt Q12879); settings: NMDA receptor agonist; cited from earlier work
[2] = molecular target: NMDA receptor NR2B subunit (Homo sapiens, UniProt Q13224); settings: NMDA receptor agonist; cited from earlier work
[3] = molecular target: T1, KMO (Homo sapiens, UniProt O15229); assay: KMO inhibition: L-kynurenine hydroxylation to 3OH-KYN monitored by LC/MS; type: biochemical; settings: 10 μM compound
T1 construct: GST; His; expressed in transfected cells; host or cells: CHO (CHO-GST HIS KMO cell line)
T1 sequence (O15229 whole entry): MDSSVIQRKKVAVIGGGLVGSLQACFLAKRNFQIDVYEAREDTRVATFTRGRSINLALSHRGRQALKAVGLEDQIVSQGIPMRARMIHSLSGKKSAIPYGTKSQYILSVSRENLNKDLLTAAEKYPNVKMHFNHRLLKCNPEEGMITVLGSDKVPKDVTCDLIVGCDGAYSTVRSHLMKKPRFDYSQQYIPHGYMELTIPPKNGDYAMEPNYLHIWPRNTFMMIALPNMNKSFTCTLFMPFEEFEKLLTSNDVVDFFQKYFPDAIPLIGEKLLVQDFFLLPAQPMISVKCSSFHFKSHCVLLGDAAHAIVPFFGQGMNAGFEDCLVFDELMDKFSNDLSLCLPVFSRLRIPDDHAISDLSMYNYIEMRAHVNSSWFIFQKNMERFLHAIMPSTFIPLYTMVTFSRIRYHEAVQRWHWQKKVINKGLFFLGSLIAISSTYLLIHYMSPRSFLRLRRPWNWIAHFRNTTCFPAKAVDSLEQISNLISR
Protocol: A generalized procedure for monitoring L-Kynurenine (KYN) hydroxylation to form product 3-Hydroxy-Kynurenine (3OH—KYN) by LC/MS is described below. Product is quantified by multiple reaction monitoring using MS.
IC50's are calculated using automated fitting algorithm (A+ Analysis)
A method of monitoring L-Kynurenine (KYN) hydroxylation to form product 3-Hydroxy-Kynurenine (3OH—KYN) by LC/MS is described below. Product is quantified by multiple reaction monitoring.
• Compound: Stock concentrations: 10 mM in 100% DMSO • Enzyme: KMO enzyme prepared at Evotec via mitochondria isolation from CHO-GST HIS KMO cells • Substrate: L-Kynurenine (Sigma: Cat#K3750) • [stock concentration: 10 mM in 100 mM potassium phosphate buffer, pH 7.4]
IC50's are calculated using automated fitting algorithm (A+ Analysis).
A method of monitoring L-Kynurenine (KYN) hydroxylation to form 3-Hydroxy-Kynurenine (3OH—KYN) by LC/MS is described. Product is quantified by multiple reaction monitoring (MRM method).

[4] = system: extracellular levels of KYN, KYNA, 3-OH-KYN, AA and QA in the striatum; assay: Microdialysis after PO dosing of kynurenine, Compound 6 or both: extracellular KP metabolites in striatum; type: in vivo, adult male WT mice; settings: 30 mg/kg p.o., dosed alone; WT mice
Protocol: (§1) Animals were anesthetized using isoflurane (2%, 800 mL/min O2). Bupivacain/epinephrine was used for local analgesia, finadyne or carprophen for peri-/post-operative analgesia. The animals were placed in a stereotaxic frame (Kopf instruments, USA). I-shaped probes (membrane: polyacrylonitrile, 3 mm exposed surface; Brainlink, the Netherlands) were inserted in the striatum. After surgery, animals were kept individually in cages; provided food and water ad libitum.
(§2) Experiments were performed one day after surgery. On the day of the experiment, the probes of the animals were connected with flexible PEEK tubing to a microperfusion pump (Harvard PHD 2000 Syringe pump, Holliston, Mass. or similar). The I-shaped microdialysis probes were perfused with aCSF containing 147 mM NaCl, 3.0 mM KCl, 1.2 mM CaCl2 and 1.2 mM MgCl2, at a flow rate of 1.5 μL/min. Microdialysis samples were collected at 20-minute intervals by an automated fraction collector (820 Microsampler, Univentor, Malta or similar) into mini-vials already containing 10 μL 0.02 M formic acid (FA) and 0.04% ascorbic acid in ultrapurified H2O. At t=−30 min vehicle or KMO inhibitor were be administered, to ensure central and peripheral inhibition of KMO at the time of administration of kynurenine. At t=0 vehicle or kynurenine were administered. Microdialysate samples were collected for 240 min after administration of kynurenine. All the dialysis samples were stored at −80° C. awaiting their analysis. Dialysate levels of any or all of KP metabolites KYN, KYNA, 3-OH—KYN, AA and QA were quantified by LC-MS/MS at by Brains On-Line. After the experiment, the mice were sacrificed and terminal brain (striatum+cortex), liver, kidney, plasma and CSF samples were collected for analysis of KP metabolites. Levels of KP metabolites were measured in terminal brain (striatum+cortex), liver, kidney, plasma and CSF samples at Brains On-Line. Finally, levels of kynurenine and KMO inhibitors in dose formulation samples were quantified by Brains On-Line.
A method of examining the pharmacodynamic effects of kynurenine (30 mg/kg, p.o.) and Compound 6 (30 mg/kg, p.o.) on extracellular levels of KYN, KYNA, 3-OH—KYN, AA and QA in the striatum (STR) of adult male WT mice either co-dosed or dosed independently is disclosed.
Furthermore, PO administration of Compound 6 blocks toxic metabolites 3-OH—KYN (see FIG. 10) and QA (see FIG. 11), whereas kynurenine dosing increases them, due to kynurenine catabolism in mice brain.

[5] = system: KP metabolites (KYN, KYNA, AA, 3-HK) via KMO inhibition; assay: Microdialysis after PO dosing at various dosage levels: KP metabolites in striatum extracellular space; type: in vivo; settings: PO 3, 10 or 30 mg/kg; mouse striatum microdialysis
Protocol: as §1, §2
A method of examining the modulation of KYN, KYNA, AA, and 3-HK via KMO inhibition with Compound 6 in striatum extracellular space is disclosed. […] Following the microdialysis procedure described herein, dialysate levels of KP metabolites KYN, KYNA, 3-HK, and AA were quantified by LC-MS/MS at by Brains On-Line.

[6] = system: KP metabolite KYNA; assay: Microdialysis after PO dosing in WT and HD (Q175_KI homozygous) animals: KYNA in striatum; type: in vivo, mouse; settings: PO 3 mg/kg or 10 mg/kg
Protocol: as §1
Experiments were performed one day after surgery. On the day of the experiment, the probes of the animals were connected with flexible PEEK tubing to a microperfusion pump (Harvard PHD 2000 Syringe pump, Holliston, Mass. or similar). […] Dialysate levels of any or all of KP metabolites KYN, KYNA, 3-OH—KYN, AA and QA were quantified by LC-MS/MS at by Brains On-Line. […] Levels of KP metabolites were measured in terminal brain (striatum+cortex), liver, kidney, plasma and CSF samples at Brains On-Line. Finally, levels of kynurenine and KMO inhibitors in dose formulation samples were quantified by Brains On-Line.
A method of examining the modulation of KP metabolites in HD animals similar to WT controls is disclosed. […] Following the microdialysis procedure described herein, dialysate levels of KP metabolite KYNA was quantified by LC-MS/MS at by Brains On-Line. […]

NMDA receptor NR2A subunit, sequence (Q12879 23-1464, other chains not shown): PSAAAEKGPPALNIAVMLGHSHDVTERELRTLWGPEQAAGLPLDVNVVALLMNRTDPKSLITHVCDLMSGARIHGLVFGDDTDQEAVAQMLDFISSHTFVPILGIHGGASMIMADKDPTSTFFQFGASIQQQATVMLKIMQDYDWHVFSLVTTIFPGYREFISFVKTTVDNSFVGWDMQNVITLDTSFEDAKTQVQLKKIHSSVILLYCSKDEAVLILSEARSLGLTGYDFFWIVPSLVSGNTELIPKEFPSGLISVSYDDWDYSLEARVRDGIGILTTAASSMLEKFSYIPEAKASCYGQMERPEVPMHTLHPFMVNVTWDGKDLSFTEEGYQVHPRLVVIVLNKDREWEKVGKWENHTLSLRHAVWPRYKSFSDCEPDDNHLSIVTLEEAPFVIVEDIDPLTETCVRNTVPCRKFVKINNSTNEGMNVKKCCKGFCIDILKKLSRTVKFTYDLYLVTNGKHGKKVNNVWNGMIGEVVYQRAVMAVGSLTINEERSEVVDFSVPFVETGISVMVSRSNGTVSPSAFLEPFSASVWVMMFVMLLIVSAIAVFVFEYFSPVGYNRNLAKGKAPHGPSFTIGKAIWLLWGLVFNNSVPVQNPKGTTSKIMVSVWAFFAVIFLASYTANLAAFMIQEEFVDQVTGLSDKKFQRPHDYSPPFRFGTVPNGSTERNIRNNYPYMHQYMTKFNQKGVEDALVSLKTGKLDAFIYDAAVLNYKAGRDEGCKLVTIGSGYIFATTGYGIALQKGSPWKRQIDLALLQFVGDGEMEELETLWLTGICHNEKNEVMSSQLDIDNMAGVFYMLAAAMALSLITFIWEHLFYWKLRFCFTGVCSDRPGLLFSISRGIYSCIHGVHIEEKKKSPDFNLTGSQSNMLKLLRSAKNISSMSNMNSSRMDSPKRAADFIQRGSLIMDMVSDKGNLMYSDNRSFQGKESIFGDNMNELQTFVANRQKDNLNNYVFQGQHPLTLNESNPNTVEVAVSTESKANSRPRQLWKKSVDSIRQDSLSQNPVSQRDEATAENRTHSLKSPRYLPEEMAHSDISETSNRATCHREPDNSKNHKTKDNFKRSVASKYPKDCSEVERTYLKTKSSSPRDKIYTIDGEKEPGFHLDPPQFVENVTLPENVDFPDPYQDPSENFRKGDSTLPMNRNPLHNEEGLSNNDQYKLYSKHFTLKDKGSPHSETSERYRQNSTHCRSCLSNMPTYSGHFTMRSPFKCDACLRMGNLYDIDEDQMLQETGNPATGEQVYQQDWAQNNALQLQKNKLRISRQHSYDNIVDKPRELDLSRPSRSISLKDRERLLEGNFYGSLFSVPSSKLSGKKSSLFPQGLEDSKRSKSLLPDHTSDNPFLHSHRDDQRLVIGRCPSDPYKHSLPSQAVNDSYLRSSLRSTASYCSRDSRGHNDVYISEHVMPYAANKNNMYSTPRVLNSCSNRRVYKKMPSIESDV
NMDA receptor NR2B subunit, sequence (Q13224 27-1484, other chains not shown): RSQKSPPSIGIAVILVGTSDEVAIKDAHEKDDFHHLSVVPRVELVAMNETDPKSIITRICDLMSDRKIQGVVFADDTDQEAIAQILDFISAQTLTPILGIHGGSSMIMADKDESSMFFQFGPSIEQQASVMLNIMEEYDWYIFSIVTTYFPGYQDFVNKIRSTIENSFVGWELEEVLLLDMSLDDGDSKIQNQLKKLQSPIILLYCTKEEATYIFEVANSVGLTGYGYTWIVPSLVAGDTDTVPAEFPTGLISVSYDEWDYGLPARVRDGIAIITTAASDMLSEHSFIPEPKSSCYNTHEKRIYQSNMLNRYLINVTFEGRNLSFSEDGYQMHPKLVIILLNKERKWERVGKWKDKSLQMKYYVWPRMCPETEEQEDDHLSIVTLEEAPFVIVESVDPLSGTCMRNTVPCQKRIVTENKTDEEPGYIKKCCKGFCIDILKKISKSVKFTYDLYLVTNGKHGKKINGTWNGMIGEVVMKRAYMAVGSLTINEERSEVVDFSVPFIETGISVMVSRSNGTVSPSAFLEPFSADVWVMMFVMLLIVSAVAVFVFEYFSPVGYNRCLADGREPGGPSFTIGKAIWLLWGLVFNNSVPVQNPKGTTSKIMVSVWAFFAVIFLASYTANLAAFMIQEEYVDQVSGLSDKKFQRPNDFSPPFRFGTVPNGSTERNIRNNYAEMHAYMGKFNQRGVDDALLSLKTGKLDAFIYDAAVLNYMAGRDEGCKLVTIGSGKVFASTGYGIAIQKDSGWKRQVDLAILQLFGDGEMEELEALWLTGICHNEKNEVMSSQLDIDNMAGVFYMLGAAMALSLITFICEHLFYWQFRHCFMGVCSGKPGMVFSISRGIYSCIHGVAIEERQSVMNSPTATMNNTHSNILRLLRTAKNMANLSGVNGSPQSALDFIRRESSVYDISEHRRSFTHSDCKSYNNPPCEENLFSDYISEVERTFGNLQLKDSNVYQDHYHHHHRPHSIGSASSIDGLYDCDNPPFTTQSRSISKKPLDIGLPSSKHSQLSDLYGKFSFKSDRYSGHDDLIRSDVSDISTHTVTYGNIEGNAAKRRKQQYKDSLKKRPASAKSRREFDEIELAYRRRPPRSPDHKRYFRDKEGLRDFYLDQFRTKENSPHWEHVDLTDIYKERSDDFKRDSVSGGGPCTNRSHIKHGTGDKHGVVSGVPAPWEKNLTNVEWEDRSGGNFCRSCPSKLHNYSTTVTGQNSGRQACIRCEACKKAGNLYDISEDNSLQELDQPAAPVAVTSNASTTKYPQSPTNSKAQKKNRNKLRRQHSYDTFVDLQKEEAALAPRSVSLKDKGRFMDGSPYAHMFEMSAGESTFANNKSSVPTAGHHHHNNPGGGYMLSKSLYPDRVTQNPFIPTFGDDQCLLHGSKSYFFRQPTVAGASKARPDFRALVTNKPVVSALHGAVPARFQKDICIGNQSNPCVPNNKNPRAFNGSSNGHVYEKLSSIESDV

SMILES	inhibition at 10 µM [3] [%]	3-OH-KYN in striatum [4]	AA in striatum [4]	KYN in striatum [4]	KYNA in striatum [4]	QA in striatum [4]	also measured
O=C(O)c1cccnc1C(=O)O [QUIN, quinolinic acid]	–	–	–	–	–	–	affinity for NR2A subunit [1]: 7 to 10 µmol; affinity for NR2B subunit [2]: 100 µmol
CC[C@@H](C)Oc1ccc(-c2cc(C(=O)O)ncn2)cc1Cl [Compound 5, (R)-6-(4-sec-butoxy-3-chlorophenyl)pyrimidine-4-carboxylic acid]	100	–	–	–	–	–	–
CC[C@H](C)Oc1ccc(-c2cc(C(=O)O)ncn2)cc1Cl [Compound 4, (S)-6-(4-sec-butoxy-3-chlorophenyl)pyrimidine-4-carboxylic acid]	100	–	–	–	–	–	–
Nc1ccccc1C(=O)CC(N)C(=O)O (stereo not drawn) [kynurenine, reference compound]	–	increases	little or no effect	little or no effect	little or no effect	increases	–
O=C(O)c1cc(-c2ccc(OC3CC3)c(Cl)c2)ncn1 [Compound 6, 6-(3-chloro-4-cyclopropoxyphenyl)pyrimidine-4-carboxylic acid]	100	blocks	increases	increases	increases	blocks	3-HK in striatum extracellular space [5]: insufficient modulation; also recorded: little or no effect; AA in striatum extracellular space [5]: dose dependent increases; KYN in striatum extracellular space [5]: dose dependent increases; KYNA in striatum extracellular space [5]: dose dependent increases; KP metabolite KYNA in striatum, HD mice ([6]; Q175_KI homozygous (HD) mice): dose dependent increase; also recorded: increases; KP metabolite KYNA in striatum, WT mice ([6]; wild type mice): dose dependent increase; also recorded: increases

— US10258621B2, “Methods and compositions for treating HIV-related disorders” (CHDI Foundation, Inc., priority 2014, dated 2019)
